# From US20230339835A1, “2,3,5-TRIMETHYL-6-NONYLCYCLOHEXA-2,5-DIENE-1,4-DIONE FOR SUPPRESSING AND TREATING ALPHA-SYNUCLEINOPATHIES, TAUOPATHIES, AND OTHER DISORDERS” (PTC THERAPEUTICS, INC., priority 2018, published 2023)
# Marks after values point to notes of the source that are not given here.
# What was measured:
# [1] = Solubility in simulated fluids and water; assay type: physicochemical; details: for solubility at 24 h: thermodynamic from solid
# Protocol: Solubility of Pattern A and melted solid was assessed in Fasted-State Simulated Gastric Fluid (FaSSGF), Fed-State Simulated Intestinal Fluid (FeSSIF), and Fasted-State Simulated Intestinal Fluid (FaSSIF), water, and 0.5% methyl cellulose+2% Tween80 in water. Five foil-covered 4 mL vials were prepared with 11-13 mg of as-received material (ID-1-1), 10 mm stir bars were included. Five foil-covered 4 mL vials containing between 11-13 mg of C9 were melted on a hot plate at 70° C. for 10 min and cooled to room temperature for 5 min, 10 mm stir bars were included.
# Slurries were prepared with the as-received material ID-1-1 (Pattern A) and melted C9, each in 2.5 mL of simulated fluids (including 0.5% methyl cellulose+2% Tween80 in water), or water. The samples containing melted active pharmaceutical ingredient (API) were sonicated briefly, as they appeared to contain clumps of material. […] For solubility analysis 1 mL of each sample was pipetted into a syringe filter, the first 0.5 mL was filtered back into the source vial and the remaining 0.5 mL was filtered into HPLC vials with low volume inserts.
# The response factor calculated with the calibration points was used to determine the concentrations of API in the simulated fluids and water. Calibration samples were prepared with as-received material (ID-1-1) in ACN. The concentrations and peak areas for each calibration point were plotted and a response factor calculated for solubility assessment.
# Due to high pressures observed with the UPLC column, a different column and a modified method was employed for 24 h data points with 0.5% methyl cellulose+2% Tween80 in water, and 24 h in water (ID-30-4, ID-30-9 and ID-30-10). HPLC samples of ID-30-4 and 30-9 (those containing the methyl cellulose/Tween80 mixture) were diluted 10× with ACN. These samples plus a new set of injections of the calibration points were analyzed, a new response factor was determined, and the solubility of the remaining samples was calculated (response factor: 8084.7908; R2: 0.9989).
# [2] = Humidification cycling by dynamic vapor sorption (DVS); assay type: physicochemical
# Protocol: As-received material (ID 1-1) was subjected to humidification cycling by dynamic vapor sorption (DVS) instrument. The material underwent a 0.01% change in mass in the 15-75% relative humidity range, and a 0.08% change in mass over the full range of 2-95% relative humidity. Following humidification cycling, the solid was analyzed by XRPD.
# [3] = target: T1, recombinant human αSynuclein (Homo sapiens, UniProt P37840); assay: Cell-free αSynuclein aggregation assay (Thioflavin T); assay type: biochemical; details: 200 μM αSynuclein, 100 μM compound, t=24 hours, one-way ANOVA with Tukey's test
# T1 construct: purchased Proteos, Inc
# Protocol: Summary: The compound 2,3,5-trimethyl-6-nonylcyclohexa-2,5-diene-1,4-dione (“C9”), and its C8 (2,3,5-trimethyl-6-octylcyclohexa-2,5-diene-1,4-dione) and C7 (2,3,5-trimethyl-6-heptylcyclohexa-2,5-diene-1,4-dione) analogs were tested for their function as inhibitors of αSynuclein aggregation, as measured by the presence and extent of a lag phase in the kinetics of protein aggregation. Changes in the fluorescence intensity by the aggregate-binding fluorophore, Thioflavin T, were followed to report on the protein aggregation as a function of time.
# Experimental Methods: Cell-free αSynuclein aggregation assays were set up with 200 μM of recombinant human αSynuclein (Proteos, Inc.) in the presence of 100 μM of compound (from 10 mM stock solutions in DMSO) or in 1% (v/v) DMSO as vehicle. All solutions were prepared in Dulbecco's phosphate-buffered saline (DPBS) buffer (pH 7.4) with 0.03% (v/v) NaN3 and 5 μM Thioflavin T (ThT), prepared as a master mix before addition of the protein or compounds. A protein master mix was then prepared and separated into 4 tubes (1 per condition). […]
# Protein solution+/−compound and background samples were then loaded into wells of an optically transparent 96-well plate with black walls (Corning Costar), which was sealed with a LightCycler® 480 seal (Roche Life Science), incubated at 37° C. for 15 minutes to equilibrate, after which the data collection was started. A Tecan M1000 spectrometer was used to collect data points on ThT fluorescence (ex/em 450/490 nm) every 30 minutes. The plate was agitated by shaking in between fluorescence reads.
# Data Analysis and Results: Fluorescence intensity data were collected on all the samples over time. The endpoint fluorescence intensity unit (FIU) value of the mean of vehicle-treated αSyn samples was set to 100%, and all other FIU values were normalized relative to it (see FIG. 1A). The end results were plotted as normalized ThT fluorescence (%) with respect to time.
# Normalized ThT fluorescence values (% FIU) at t=24 hours were used to compare samples (see FIG. 1B). […]
# [4] = target: T2, pre-formed fibrils (PFFs) of human wild-type Tau K18 fragment (Homo sapiens, UniProt P10636); assay: Cell-free Tau K18 WT pre-formed fibril disaggregation assay (Thioflavin T); assay type: biochemical; details: 10 μM Tau PFFs, 30 μM compound, 94 hr, vs vehicle (Dunnett's test)
# T2 construct: human recombinant Tau K18 WT fragment were generated by incubating the Tau K18 monomer (Bio-Techne®); purchased Bio-Techne
# T2 sequence (P10636 561-685 limits assumed): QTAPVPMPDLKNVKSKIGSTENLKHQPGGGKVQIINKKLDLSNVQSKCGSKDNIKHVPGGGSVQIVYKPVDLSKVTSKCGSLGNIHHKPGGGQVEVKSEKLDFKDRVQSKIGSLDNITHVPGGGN
# Protocol: Summary: Compounds 2,3,5-trimethyl-6-nonylcyclohexa-2,5-diene-1,4-dione (C9), 2,3,5-trimethyl-6-octylcyclohexa-2,5-diene-1,4-dione (C8), and 2,3,5-trimethyl-6-heptylcyclohexa-2,5-diene-1,4-dione (C7) were tested for their ability to disaggregate pre-formed fibrils (PFFs) of human wild-type Tau K18 fragment, as measured by the decrease in fluorescence intensity of the aggregate-binding fluorophore, Thioflavin T, over time.
# Experimental Methods: Pre-formed fibrils (PFFs) of the human recombinant Tau K18 WT fragment were generated by incubating the Tau K18 monomer (Bio-Techne®) with sodium heparin in a 1:1 ratio in presence of excess (50×) tris(2-carboxyethyl)phosphine (TCEP) as the reducing agent in Dulbecco's phosphate-buffered saline (DPBS) buffer (pH 7.4). The mixture was incubated for 4 days at 37° C. without agitation to yield PFFs in 100 μM final concentration.
# Cell-free Tau disaggregation assays were set up with 10 μM of Tau PFFs in the presence of 30 μM of compound (from 10 mM stocks in DMSO) or in 0.3% (v/v) DMSO as vehicle. All solutions were prepared in DPBS buffer (pH 7.4) with 0.03% (v/v) NaN3 and 5 μM Thioflavin T (ThT), prepared as a master mix before addition of the protein or compounds. A protein master mix was first prepared the day before the assay to pre-equilibrate the Tau PFFs at 10 μM at ambient temperature and atmosphere. The next day, the pre-mixed protein solution was separated into 4 tubes (1 per condition). […]
# Tau PFFs solution+/−compound and background samples were then loaded into wells of an optically transparent 96-well plate with black walls, which was sealed with a LightCycler® 480 seal (Roche Life Science), incubated at 37° C. for 15 minutes to equilibrate and the data collection was initiated. A Tecan M1000 spectrometer was used to collect data points on ThT fluorescence (ex/em 450/490 nm) every 30 minutes without agitation.
# Data Analysis and Results: The maximum fluorescence intensity unit (FIU) value of the vehicle-treated Tau samples was set to 100%, to which all other FIU values were normalized relatively. […]
# [5] = tested on: N27 rat dopaminergic cells overexpressing a truncated human αSynuclein-GFP fusion protein; assay: Inhibition of RSL3-induced αSynuclein aggregation in N27 cells; assay type: cell-based; details: 60 nM RSL3, 70 nM compound, 24 hr, vs RSL3 only (Dunnett's test)
# Protocol: N27 rat dopaminergic cells (purchased from EMD Millipore, SCC048) were transformed to stably overexpress truncated α-Synuclein fused with green fluorescent protein (GFP) with a plasmid construct obtained from Origene (RG221446). Cells were maintained in selection media which consisted of RPMI 1640 media supplemented with 10% (v/v) fetal bovine serum (Millipore, ES-009-B), 1% (v/v) Pencillin-Streptomycin (Gibco, 15140-122), 1% (v/v) L-Glutamine (Gibco, 25030-081) and 500 μg/mL of G418 (Gibco, 10131-027).
# N27 rat dopaminergic cells overexpressing a truncated (112 amino acid) human αSynuclein-GFP fusion protein, as described above, were maintained in normal culture conditions as described above. The day before the experiment, cells were plated in 96 well optical bottom, black walled plates at 3,000 cells/well, and maintained at 37° C. for 24 hr. The experiment was initiated by co-treating cells with (1S,3R)-methyl 2-(2-chloroacetyl)-1-(4-(methoxycarbonyl)phenyl)-2,3,4,9-tetrahydro-1H-pyrido[3,4-b]indole-3-carboxylate (1S,3R-RSL3, described by Yang et al., Cell 156:317-331 (2014)) (60 nM) and 70 nM compounds (2,3,5-trimethyl-6-nonylcyclohexa-2,5-diene-1,4-dione (C9), 2,3,5-trimethyl-6-octylcyclohexa-2,5-diene-1,4-dione (C8), or 2,3,5-trimethyl-6-heptylcyclohexa-2,5-diene-1,4-dione (C7)) using a D300e compound printer (Tecan), and placed back in the incubator at 37° C. for 24 hr. Cells were fixed with 4% paraformaldehyde for 15 minutes at room temperature, washed 3 times with Dulbecco's phosphate-buffered saline (DPBS) buffer, and then incubated at room temperature for 48 hr with 1% Triton-X 100 solution (in DPBS) to enable selective labeling of aggregated αSynuclein. Cells were then washed and standard immunocytochemistry (ICC) methods were employed to label total αSynuclein (mouse anti-αSynuclein, 1:250, BD Biosciences). Cells were incubated with primary antibody overnight at 4° C. and then washed with DPBS 3 times the following day. Cells were then incubated at room temperature with a fluorescently conjugated secondary antibody (goat anti-mouse Alexa 647, Invitrogen) for 2 hr at room temperature. 10 nM Hoechst was also added to label nuclei, and cells were imaged on a high-content imaging platform (ThermoFisher, HSC Cellomics Arrayscan) to quantify total aggregated αSynuclein (see FIG. 3A).
# Statistical analysis of samples was performed via ordinary one-way ANOVA analysis with Dunnett's multiple comparisons test, comparing RSL3 only-treated vs. RSL3 plus compound-treated cells.
Structure (SMILES),"Solubility at 24 hours (mg/mL) ([1]; 0.5% MC + 2% Tween80 (aq), Phenomenex Luna Phenyl Hexyl HPLC column and modified method, listed as A (melted))","Conc. (mg/mL) at 30 min ([1]; 0.5% MC + 2% Tween80 (aq.), listed as A (melted))","solubility at 24 h ([1]; 0.5% methyl cellulose + 2% Tween80 in water, aqueous with cosolvent or surfactant or cyclodextrin, 0.5% MC + 2% Tween80 (aq), Phenomenex Luna Phenyl Hexyl HPLC column and modified method)",Conc. (mg/mL) at 30 min ([1]; FaSSGF),Solubility at 24 hours (mg/mL) ([1]; FaSSGF),"Conc. (mg/mL) at 30 min ([1]; FaSSIF, listed as A (melted))","solubility at 24 h ([1]; Fasted-State Simulated Intestinal Fluid (FaSSIF), fassif)","Conc. (mg/mL) at 30 min ([1]; FeSSIF, listed as A (melted))","solubility at 24 h ([1]; Fed-State Simulated Intestinal Fluid (FeSSIF), fessif)",Conc. (mg/mL) at 30 min ([1]; water),Solubility at 24 hours (mg/mL) ([1]; water),"Solubility at 24 hours (mg/mL) ([1]; water, listed as A (melted))",DVS Change Mass (wt. %) ([2]; 2-95% RH),DVS Change Mass (wt. %) ([2]; 15-75% RH),inhibition of αSynuclein aggregation (normalized ThT fluorescence vs vehicle) [3],reduction in Tau fibril content [4],inhibition of RSL3-induced αSynuclein aggregation [5]
"CCCCCCCCCC1=C(C)C(=O)C(C)=C(C)C1=O [Melted Pattern A, 2,3,5-trimethyl-6-nonylcyclohexa-2,5-diene-1,4-dione]",0.28# mg/mL,0.22 mg/mL,280 µg/mL,BDL,BDL,0.02 mg/mL,40 µg/mL,0.25 mg/mL,200 µg/mL,BDL,BDL,BDL#,0.073 wt. %,0.044 wt. %,,,
"CCCCCCCC1=C(C)C(=O)C(C)=C(C)C1=O [Compound C7, 2,3,5-trimethyl-6-heptylcyclohexa-2,5-diene-1,4-dione]",,,,,,,,,,,,,,,not statistically significant,did not have a significant reduction,did not demonstrate any inhibition
